Assay results taken from publication PMC7841309, “Involvement of the Mitochondrial Protein Tyrosine Phosphatase PTPM1 in the Promotion of Conidiation, Development, and Pathogenicity in Colletotrichum graminicola” (Frontiers in Microbiology, 2021).

Target: T1, CgPTPM1 (Colletotrichum graminicola, UniProt E3QMN0)
T1 construct: gene GLRG_07262; full-length ORF (1869 bp cDNA, 622 residues) in pET28a, His-tag, E. coli BL21, Ni-NTA, about 74 kDa
Test: colorimetric phosphatase assay, […] nm
Type: biochemical
Conditions: 0.1 M Tris, 0.25 M NaCl, 5 mM EDTA, 10 mM DTT, pH 8.2, 37 C, 30 min

T1 sequence (E3QMN0 entry or part of it): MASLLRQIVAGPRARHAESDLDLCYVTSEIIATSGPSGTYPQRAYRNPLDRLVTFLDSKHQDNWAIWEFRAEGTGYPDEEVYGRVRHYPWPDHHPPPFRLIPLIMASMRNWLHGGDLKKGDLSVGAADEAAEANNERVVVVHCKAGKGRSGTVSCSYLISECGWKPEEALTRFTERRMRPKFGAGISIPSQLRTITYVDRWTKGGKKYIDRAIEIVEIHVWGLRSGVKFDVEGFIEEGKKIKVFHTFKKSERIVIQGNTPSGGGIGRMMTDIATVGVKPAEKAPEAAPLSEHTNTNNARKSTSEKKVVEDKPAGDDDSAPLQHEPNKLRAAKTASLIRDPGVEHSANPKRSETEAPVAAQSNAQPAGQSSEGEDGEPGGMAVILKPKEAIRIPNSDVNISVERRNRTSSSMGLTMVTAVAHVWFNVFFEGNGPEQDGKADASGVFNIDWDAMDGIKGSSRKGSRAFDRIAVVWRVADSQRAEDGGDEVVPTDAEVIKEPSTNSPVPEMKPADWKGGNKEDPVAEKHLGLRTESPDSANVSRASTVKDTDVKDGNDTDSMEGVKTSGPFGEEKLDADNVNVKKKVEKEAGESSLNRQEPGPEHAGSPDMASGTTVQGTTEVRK

O=[N+]([O-])c1ccc(OP(=O)(O)O)cc1 [pNPP, p-nitrophenyl phosphate]
colorimetric phosphatase assay, 405 nm: Using pNPP as a substrate, the protein phosphatase activity was detected using the colorimetric method
